Data taken from patent US20120003191A1, “VALPROIC ACID, DERIVATIVES, ANALOGUES, AND COMPOSITIONS INCLUDING SAME AND METHODS FOR THEIR THERAPEUTIC USE” (priority 2009, published 2012).

What was measured:
α7A integrin = assay: Western blotting of α7A integrin in α7+/− myotubes; format: cell-based, mouse; conditions: 2 mM VPA for 72 hours
Description: (§1) α7^+/− myogenic cells were cultured on 1% gelatin-coated plastic plates in Ham's F-10 growth medium (20% FBS, 0.5% chick embryo extract, 5 ng/ml bFGF, 2 mM glutamine, 100 U/ml penicillin and 100 μg/ml streptomycin). After six passages, cells were grown in DMEM containing 20% FBS, 0.5% chick embryo extract, 2 mM glutamine, 100 U/ml penicillin and 100 μg/ml streptomycin. Differentiation was induced by switching the medium to DMEM containing 2% horse serum and antibiotics when cells attained 90% confluence. After 48 hours of differentiation, 2 mM VPA was added and supplied fresh every 24 hours. Wortmannin was used at 100 nM and added fresh every 24 hours.
(§2) Cell lysates of differentiating cells on 60 mm dishes were prepared as follows: the cells were washed twice with PBS and 200 μl Triton X-100 lysis buffer (2% Triton X-100, 20 mM Tris-Cl, pH 7.4, 150 mM NaCl, 1 mM EDTA, 1 mM EGTA, 2.5 mM NaPPi, 1 mM β-glycerophosphate, 1 mM sodium vanadate, 1:200 Protease Inhibitor Cocktail (EMD Chemicals, San Diego, Calif.) and 1 mM PMSF) were added. […] Protein concentrations were determined by the Bradford assay. […] The supernatants were collected and protein concentrations were determined spectrophotometrically at OD260 and OD280. […] ImageQuant analysis software (Molecular Dynamics, Sunnyvale, Calif.) was used to quantify band intensity.

[1] = mice; cited from earlier work
α7B integrin = assay: Western blotting of α7B integrin in α7+/− myotubes; format: cell-based, mouse; conditions: 2 mM VPA for 72 hours
Description: as §1, §2

mdx/utrn−/− mice = assay: Masson's trichrome staining of quadriceps cryosections; format: in vivo, mouse; conditions: 240 mg/kg i.p. twice daily for 5 weeks
Description: mdx/utrn−/− mice lack both dystrophin and utrophin, and were bred and genotyped as reported in Burkin, et al., Enhanced expression of the alpha 7 beta 1 integrin reduces muscular dystrophy and restores viability in dystrophic mice, J. Cell Biol. 152:1207-18 (2001). 240 mg/kg body weight of VPA was injected intraperitoneally twice daily into mdx/utrn^−/− mice (n=9) starting at 3 weeks of age, for a period of 5 weeks. Control mice were injected with saline (n=9). Body-weights were determined daily. Masson's trichrome staining kit (American MasterTech Scientific Inc., Lodi, Calif.) was used to stain 8 μm muscle cryosections, as per the manufacturer's instructions.

ERK = assay: Western blotting of activated ERK in α7+/− myotubes; format: cell-based, mouse; conditions: VPA treated myotubes
Description: as §1, §2

CCCC(CCC)C(=O)O [VPA, valproic acid]
α7A integrin isoform increase (α7A integrin): 2 fold | half-life [1]: about 45 minutes | α7B integrin isoform increase (α7B integrin): 1.5 fold | collagen staining in quadriceps compared to controls (mdx/utrn−/− mice): lower intensity of collagen staining | levels of activated ERK (ERK): significantly lower levels
